# Data published in patent US20040047845A1, “Methods and compositions for diagnosis and treatment of cancer based on the transcription factor ets2” (MUSC Foundation For Research Development, priority 1998, published 2004).
# Columns and labels:
# [1] = system: LNCaP human prostate cell line; assay: Soft agar growth assay, LNCaP; format: cell-based; conditions: de novo expression of ETS2 in weakly tumorigenic LNCaP
# Description: (§1) Transfection of LNCaP was performed in 35-mm wells using 2 μg of DNA and Superfact Reagent (Qiagen, Calif.). Selection for stable LNCaP transfectants was in 450 μg/ml G418. DU145 and PC3 cells were transfected using LipofectAmine ([…]/35 mm well, Life Technologies Inc., Bethesda, Md.). Stable DU145 and PC3 transfectants were expanded in the presence of 300 μg/ml G418.
# (§2) Soft agar growth assays were performed in six-well plates (35-mm wells). Cells (20,000) were plated in 0.4% agar (Sigma) in RPMI 1640 supplemented with 10% FBS. An underlayer of 0.8% agar was used to prevent attachment of cells. Triplicate assays initiated with 20,000 cells were fed weekly by agar overlay and scored after 3 weeks. The soft agar assays were performed twice, independently.
# DU145 cells = assay: Soft agar growth assay (anchorage independent growth), DU145; format: cell-based, human; conditions: DN-ETS2 transfectants vs DU145 parental cell line, after three weeks
# Description: as §1, §2
Molecule,ability to grow in soft agar [1],anchorage-independent growth in soft agar (DU145 cells)
"ETS2: wild type human ETS2 transcription factor, expressed de novo in LNCaP from ETS2 cDNA in sense orientation",increases its ability to grow in soft agar,
"DN-ETS2: dominant negative truncated human ETS2 protein, DNA binding domain (C-terminal amino acids 334-469), expressed from plasmid pDN-ETS2 (protein, UniProt P15036 334-469, looked up, fragment) YIQERSDPVEQGKPVIPAAVLAGFTGSGPIQLWQFLLELLSDKSCQSFISWTGDGWEFKLADPDEVARRWGKRKNKPKMNYEKLSRGLRYYYDKNIIHKTSGKRYVYRFVCDLQNLLGFTPEELHAILGVQPDTED",,do not grow well in soft agar
